# Assay results taken from patent US4238491A (priority 1977, dated 1980).
# Where two headings read alike, the source gives them in different places.
# What was measured:
# [1] = system: blood pressure of SHR; experiment: Antihypertensive effect by single oral administration, SHR, modified tail-cuff method; assay type: in vivo, rat (spontaneously hypertensive rats
# Source text: The effect was examined through both direct and modified tail-cuff methods using male SHRs aged 25 to 30 weeks and weighing about 300 g.
# [2] = system: rats; experiment: Sub-acute toxicity: histopathological examination; assay type: in vivo, rat (SD (SPF)); conditions: for Adrenal Hypertrophy: 5 rats
# Source text: Rats were sacrificed under anesthesia with ether.
# Five samples were randomly selected from each group, and paraffin-sectionedpreparations of the organs were made by a routine method. The preparations were stained with hematoxyline-eosin stain and Luxol-fast blue (central nervous system only) and examined histopathologically.
# [3] = system: central nervous system; experiment: Behavior-pharmacological studies, central nervous system depressing effect; set-up: species or system mouse (dd-strain); conditions: mouse, in vivo
# Source text: Effects on central nervous system were studied as follows: […]
# [4] = Excretion into bile after venous injection; assay type: in vivo; conditions: rabbit, iv, within 6 hours, of amount administered
# Procedure: From the Figure it is recognized that an amount as small as 0.3 to 0.5% of the administered MR is discharged into bile within 6 hours after administration.
# [5] = system: hexobarbital hypnosis
# Procedure: Period of induced sleeping was measured with righting reflex as a parameter.
# [6] = system: rats
# Procedure: The rate were bred in individual cages under the following conditions: temperature, 23°±2° C.; relative humidity, 55±5%; free taking of solid food (CE-2, CLEA Japan, Inc.) and tap water.
# Volume of the medicine solution for one administration was dicided to be 1 ml per 100 g of weight, and the dose was administered once a day, 6 times a week over 5 weeks. The control group received the same volume of 0.2% carboxymethyl cellulose solution.
compound,measurement,setting,value
"COC(=O)[C@H]1[C@H]2C[C@@H]3c4[nH]c5cc(OC)ccc5c4CCN3C[C@H]2C[C@@H](O)[C@@H]1OC [MR, methylreserpate]",maximum rate of blood pressure decrease,[1]; 6.25 mg/kg oral,31.7%
same,time to reach original blood pressure level,[1]; 6.25 mg/kg oral,48 h
same,time to reach original blood pressure level,[1]; 25 mg/kg oral,72 h
same,maximum rate of blood pressure decrease,[1]; 25.0 mg/kg oral,42.5%
same,time from which blood pressure gradually returned,"[1]; after plateau, 6.25, 12.5 and 25 mg/kg oral",about 12 hours
same,Adrenal Hypertrophy,[2]; 25.0 mg/kg,- - - + -
same,Adrenal Hypertrophy,[2]; 50.0 mg/kg,+ + ++ + +
same,Adrenal Hypertrophy,[2]; 100.0 mg/kg,+ + + + +
same,Lung Alveolar wall Congestion,"[2]; 200.0 mg/kg, 5 dead rats",+ ++ ++ ++ +++
same,Lung Alveolar wall Pneumonia,"[2]; 200.0 mg/kg, 5 dead rats",++ ++ ++ + +
same,Lung Alveolus Pneumonia,"[2]; 200.0 mg/kg, 5 dead rats",- - - - -
same,Lung Bronchus Bronchitis,"[2]; 200.0 mg/kg, 5 dead rats",- - - - -
same,Pancreas,"[2]; 200.0 mg/kg, 5 dead rats",- - - - -
same,Prostate,"[2]; 200.0 mg/kg, 5 dead rats",- - - - /
same,Salivary Mucous gl.,"[2]; 200.0 mg/kg, 5 dead rats",- - - - -
same,Salivary Serous gl. Atrophy,"[2]; 200.0 mg/kg, 5 dead rats",- - - - -
same,Spleen Atrophy,"[2]; 200.0 mg/kg, 5 dead rats",- - - - -
same,Spleen Congestion,"[2]; 200.0 mg/kg, 5 dead rats",++ ++ ++ + +
same,Spleen Haemosiderosis,"[2]; 200.0 mg/kg, 5 dead rats",+ + + + +
same,Stomach,"[2]; 200.0 mg/kg, 5 dead rats",- - - - -
same,Testis,"[2]; 200.0 mg/kg, 5 dead rats",- - - - -
same,Thyroid,"[2]; 200.0 mg/kg, 5 dead rats",/ - - - /
same,Thyroid Atrophy,"[2]; 200.0 mg/kg, 5 dead rats",+++ / +++ / /
same,Urine bladder,"[2]; 200.0 mg/kg, 5 dead rats",- - - - -
same,Bone marrow Hypoplasia,"[2]; rat, in vivo",- - - - -
same,Central nerve,"[2]; rat, in vivo",- - - - -
same,Heart Endocardium,"[2]; rat, in vivo",- - - - -
same,Heart Epicardium,"[2]; rat, in vivo",- - - - -
same,Heart Myocardium Focal collapse,"[2]; rat, in vivo",+ - - + -
same,Heart finding,"[2]; rat, in vivo",focal collapse of heart muscles
same,Hypophysis,"[2]; rat, in vivo",- - - - -
same,Intestine,"[2]; rat, in vivo",- - - - -
same,Kidney,"[2]; rat, in vivo",- - - - -
same,Liver Glisson's capsule Cell inf.,"[2]; rat, in vivo",- + + + +
same,Liver Kupffer cell Swelling,"[2]; rat, in vivo",- - + + -
same,Liver cell Degeneration,"[2]; rat, in vivo",- - - - -
same,Liver cell cord Cell inf.,"[2]; rat, in vivo",- - + - -
same,Liver cell cord Congestion,"[2]; rat, in vivo",- - - - -
same,Liver: Glisson's capsule or liver cell cords; Kupffer cells,"[2]; rat, in vivo","lymphocytic cell infiltration in Glisson's capsule or liver cell cords, and swelling of Kupffer cells"
same,Lung Alveolar wall Congestion,"[2]; rat, in vivo",- - - - -
same,Lung Alveolar wall Pneumonia,"[2]; rat, in vivo",- - - - -
same,Lung Alveolus Pneumonia,"[2]; rat, in vivo",- + - - -
same,Lung Bronchus Bronchitis,"[2]; rat, in vivo",- - - - +
same,Lymph node,"[2]; rat, in vivo",- - - - -
same,Pancreas,"[2]; rat, in vivo",- - - - -
same,Prostate,"[2]; rat, in vivo",- - - - -
same,Salivary Mucous gl.,"[2]; rat, in vivo",- - - - -
same,Salivary Serous gl. Atrophy,"[2]; rat, in vivo",- - - - -
same,Spleen Atrophy,"[2]; rat, in vivo",- - - - -
same,Spleen Congestion,"[2]; rat, in vivo",- - - - -
same,Spleen Haemosiderosis,"[2]; rat, in vivo",+ + + + +
same,Stomach,"[2]; rat, in vivo",- - - - -
same,Testis,"[2]; rat, in vivo",- - - - -
same,Thymus Atrophy,"[2]; rat, in vivo",- - - - -
same,Thyroid,"[2]; rat, in vivo",- - - - -
same,Urine bladder,"[2]; rat, in vivo",- - - - -
same,kidney histopathology,"[2]; rat, in vivo",no pathological change
same,other organs,"[2]; rat, in vivo",No other pathological change
same,pathological change of adrenal,"[2]; rat, in vivo",reversible hypertrophy of cortex
same,stomach mucous,"[2]; rat, in vivo",no pathological change of stomach mucous
same,central nervous system depressing effect compared with RSP,[3],weaker than that of RSP
same,dose excreted at 6 h,[4],0.3 to 0.5%
same,Hypnotic Time,[5]; 25 mg/kg oral,159 ± 7 s
same,Sleeping Time,[5]; 25 mg/kg oral,34.2 ± 6.7 min
same,Hypnotic Time,"[5]; mouse, in vivo",144 ± 7 s
same,Sleeping Time,"[5]; mouse, in vivo",32.9 ± 4.4 min
same,influence on time to induce sleep and sleeping period,"[5]; mouse, in vivo",did not influence
same,Eosino.,"[6]; 25.0 mg/kg, day 10",1.5±0.3%
same,Lymph.,"[6]; 25.0 mg/kg, day 10",81.8±2.0%
same,Mono.,"[6]; 25.0 mg/kg, day 10",2.1±0.4%
same,Neutro.,"[6]; 25.0 mg/kg, day 10",14.6±1.6%
same,Platelet,"[6]; 25.0 mg/kg, day 10",853±32.6 ×10^3 /mm^3
same,Eosino.,"[6]; 25.0 mg/kg, day 20",1.8±0.4%
same,Lymph.,"[6]; 25.0 mg/kg, day 20",74.8±2.1%
same,Mono.,"[6]; 25.0 mg/kg, day 20",1.2±0.3%
same,Neutro.,"[6]; 25.0 mg/kg, day 20",22.8±2.2%
same,Eosino.,"[6]; 25.0 mg/kg, day 30",1.4±0.6%
same,Lymph.,"[6]; 25.0 mg/kg, day 30",78.0±2.0%
same,Mono.,"[6]; 25.0 mg/kg, day 30",1.5±0.5%
same,Neutro.,"[6]; 25.0 mg/kg, day 30",19.2±1.9%
same,Platelet,"[6]; 25.0 mg/kg, day 30",658±26.8 ×10^3 /mm^3
same,Eosino.,"[6]; 50.0 mg/kg, day 10",1.8±0.4%
same,Lymph.,"[6]; 50.0 mg/kg, day 10",82.3±1.1%
same,Mono.,"[6]; 50.0 mg/kg, day 10",2.4±0.3%
same,Neutro.,"[6]; 50.0 mg/kg, day 10",13.5±0.8%
same,Platelet,"[6]; 50.0 mg/kg, day 10",861±33.5 ×10^3 /mm^3
same,Eosino.,"[6]; 50.0 mg/kg, day 20",1.3±0.4%
same,Lymph.,"[6]; 50.0 mg/kg, day 20",75.0±2.3%
same,Mono.,"[6]; 50.0 mg/kg, day 20",1.6±0.3%
same,Neutro.,"[6]; 50.0 mg/kg, day 20",22.1±2.2%
same,Eosino.,"[6]; 50.0 mg/kg, day 30",2.6±0.5%
same,Lymph.,"[6]; 50.0 mg/kg, day 30",78.7±1.8%
same,Mono.,"[6]; 50.0 mg/kg, day 30",1.2±0.2%
same,Neutro.,"[6]; 50.0 mg/kg, day 30",17.5±1.8%
same,Platelet,"[6]; 50.0 mg/kg, day 30",656±36.7 ×10^3 /mm^3
same,Eosino.,"[6]; 100.0 mg/kg, day 10",2.3±0.5%
same,Lymph.,"[6]; 100.0 mg/kg, day 10",77.1±2.2%
same,Mono.,"[6]; 100.0 mg/kg, day 10",2.3±0.3%
same,Neutro.,"[6]; 100.0 mg/kg, day 10",18.3±2.3%
same,Platelet,"[6]; 100.0 mg/kg, day 10",782±31.2 ×10^3 /mm^3
same,Eosino.,"[6]; 100.0 mg/kg, day 20",1.2±0.3%
same,Lymph.,"[6]; 100.0 mg/kg, day 20",69.6±3.0%
same,Mono.,"[6]; 100.0 mg/kg, day 20",1.6±0.3%
same,Neutro.,"[6]; 100.0 mg/kg, day 20",27.6±2.9%
same,Eosino.,"[6]; 100.0 mg/kg, day 30",1.4±0.4%
same,Lymph.,"[6]; 100.0 mg/kg, day 30",75.2±1.6%
same,Mono.,"[6]; 100.0 mg/kg, day 30",1.5±0.3%
same,Neutro.,"[6]; 100.0 mg/kg, day 30",21.9±1.9%
same,Platelet,"[6]; 100.0 mg/kg, day 30",696±13.9 ×10^3 /mm^3
same,Eosino.,"[6]; 200.0 mg/kg, day 10, 4 rats",0.8±0.5%
same,Lymph.,"[6]; 200.0 mg/kg, day 10, 4 rats",36.3±12%
same,Mono.,"[6]; 200.0 mg/kg, day 10, 4 rats",1.3±0.5%
same,Neutro.,"[6]; 200.0 mg/kg, day 10, 4 rats",61.8±12%
same,Platelet,"[6]; 200.0 mg/kg, day 10, 4 rats",592±54.7 ×10^3 /mm^3
